From US20260356824A1, “COMPOUNDS FOR TREATING FIBROTIC DISEASES” (Meta-Immue Inc., priority 2023, published 2026)

Legend:
A2058 cells = experiment: Chemotaxis Assay (LPA-induced migration of A2058 cells); format: cell-based; details: Homo sapiens, 4 to 8 hours, crystal violet 590 nm
Method: For monitoring the migration of cells, Neuroprobe ChemoTx® System plates ([…], 5.7 mm diameter sites; Gaithersburg, MD, USA) were utilized. To induce cell migrations, a concentration of […] or vehicle in DMEM were loaded to the bottom chamber. A total of 15,000 A2058 cells, which were starved for 24 hr following treated with test compounds or vehicle, were then applied to the upper membrane coated with 0.001% fibronectin. The plate was incubated for 4 to 8 hours to allow cell migration. Following incubation, the plate was dissembled, and the migrated cells were visualized by crystal violet staining. The stained area with crystal violet was quantified by measuring the absorbance at 590 nm and the relative percentage of the control was calculated.

hLPAR1 = molecular target: T1, hLPAR1 (Homo sapiens, UniProt Q92633); experiment: Ca2+ Flux Assay (B103 cells stably expressing hLPAR1); format: cell-based; details: LPA-induced calcium release, Fura-2 AM, compound 20 min at RT
T1 construct: expressed in transfected cells
T1 sequence (Q92633 whole entry): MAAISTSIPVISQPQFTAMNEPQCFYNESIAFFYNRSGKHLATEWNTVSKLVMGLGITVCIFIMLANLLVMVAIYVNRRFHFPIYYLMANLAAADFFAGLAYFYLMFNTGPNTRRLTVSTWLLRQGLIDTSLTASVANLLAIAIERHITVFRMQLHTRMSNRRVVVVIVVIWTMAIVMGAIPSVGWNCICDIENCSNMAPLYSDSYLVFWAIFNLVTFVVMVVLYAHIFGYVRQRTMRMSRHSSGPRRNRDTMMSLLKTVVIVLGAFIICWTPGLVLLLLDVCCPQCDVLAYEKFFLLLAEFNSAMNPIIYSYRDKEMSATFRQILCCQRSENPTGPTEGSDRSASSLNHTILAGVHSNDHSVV
Method: B103 cells stably expressing hLPAR1 were seeded at a density of 1.0×10^5 cells per well in clear flat-bottom black 96-well plates and incubated overnight in complete media. The following day, the cells were pre-incubated in serum-free media for 2 hours prior to ensure cellular equilibration. For the loading a calcium-sensitive fluorescent dye, the cells were treated with a concentration of 5 μM Fura-2 AM dye (Sigma, F1225) in Hank's buffered salt solution (HBSS) supplemented with 20 mM HEPES, […], and 0.3% fatty-acid-free bovine serum albumin for 40 minutes at room temperature (RT). Test compounds, prepared in DMSO, were then added to each well and incubated for 20 minutes at RT. To induce calcium release, a concentration of […] in HBSS supplemented with 20 mM HEPES, and 0.3% fatty-acid-free bovine serum albumin was introduced. Intracellular calcium mobilization was subsequently quantified by monitoring the fluorescence intensity using the Spark® multimode microplate reader (TECAN).

Structure (SMILES) | IC50 (A2058 cells) | IC50 (hLPAR1)
COc1cc(C2(C(=O)NS(=O)(=O)CCC(=O)O)CC2)ccc1N1CCC(c2onc(C)c2NC(=O)O[C@H](C)c2ccccc2)CC1 [Compound 1, 3-[[1-[3-methoxy-4-[4-[3-methyl-4-[[(1R)-1-phenylethoxy]carbonylamino]isoxazol-5-yl]-1-piperidyl]phenyl]cyclopropanecarbonyl]sulfamoyl]propanoic acid] | < 100 nM | < 10 nM
C=CCS(=O)(=O)NC(=O)C1(c2ccc(N3CCC(c4onc(C)c4NC(=O)O[C@H](C)c4ccccc4)CC3)cc2)CC1 [Compound 2, (1R)-1-phenylethyl N-{3-methyl-5-[1-(4-{1-[(prop-2-ene-1-sulfonyl)carbamoyl]cyclopropyl}phenyl)piperidin-4-yl]-1,2-oxazol-4-yl}carbamate] | < 100 nM | < 10 nM
COc1cc(C2(CNS(=O)(=O)CCC(=O)O)CC2)ccc1N1CCC(c2nnn(C)c2NC(=O)O[C@H](C)c2ccccc2)CC1 [Compound 3] | ≥ 5000 nM | < 10 nM
COc1cc(C2(C(=O)O)CC2)ccc1N1CCC(c2nnn(C)c2NC(=O)O[C@H](C)c2ccccc2)CC1 [Compound 4] | 500 to 5000 nM | < 10 nM
Cc1noc(C2CCN(c3ccc(C4(C(=O)O)CC4)cc3)CC2)c1NC(=O)OCC1CC1 [Compound 5] | 500 to 5000 nM | 10 to 200 nM
Cc1noc(C2CCN(c3ccc(C4(C(=O)NS(C)(=O)=O)CC4)cc3)CC2)c1NC(=O)O[C@H](C)c1ccccc1Cl [Compound 11] | 100 to 500 nM | 10 to 200 nM
Cc1noc(C2CCN(c3ccc(C4(C(=O)OCc5oc(=O)oc5C)CC4)cc3)CC2)c1NC(=O)O[C@H](C)c1ccccc1 [Compound 14] | < 100 nM | < 10 nM
Cc1nnn(C2CCN(c3ccc(C4(C(=O)NS(=O)(=O)C(F)(F)F)CC4)cc3)CC2)c1NC(=O)O[C@H](C)c1ccccc1 [Compound 15] | 500 to 5000 nM | 200 to 3000 nM
Cc1noc(C2CCN(c3ccc(C4(C(=O)O)CC4)cc3)CC2)c1NC(=O)N[C@H](C)c1ccccc1 [Compound 16] | 500 to 5000 nM | 10 to 200 nM
COc1c(C)cc(NC(=O)O[C@H](C)c2ccccc2)c(C2CCN(c3ccc(C4(C(=O)O)CC4)cc3)CC2)c1C [Compound 18] | 500 to 5000 nM | 200 to 3000 nM
COCc1ccccc1[C@H](C)OC(=O)Nc1c(C2CCN(c3ccc(C4(C(=O)O)CC4)cc3)CC2)nnn1C [Compound 24, (S)-1-(4-(4-(5-(((1-(2-(methoxymethyl)phenyl)ethoxy)carbonyl)amino)-1-methyl-1H-1,2,3-triazol-4-yl)piperidin-1-yl)phenyl)cyclopropane-1-carboxylic acid] | 100 to 500 nM | < 10 nM
C[C@@H](OC(=O)Nc1c(C2CCN(c3ccc(C4(C(=O)O)CC4)cc3)CC2)nnn1C)C1CCCCC1 [Compound 26, (R)-1-(4-(4-(5-(((1-cyclohexylethoxy)carbonyl)amino)-1-methyl-1H-1,2,3-triazol-4-yl)piperidin-1-yl)phenyl)cyclopropane-1-carboxylic acid] | 500 to 5000 nM | < 10 nM
C[C@@H](OC(=O)Nc1c(C2CCN(c3ccc(C4(C(=O)O)CC4)cc3)CC2)nnn1C)c1ccccc1Cl [Compound 27, 1-(4-{4-[5-({[(1R)-1-(2-chlorophenyl)ethoxy]carbonyl}amino)-1-methyl-1H-1,2,3-triazol-4-yl]piperidin-1-yl}phenyl)cyclopropane-1-carboxylic acid] | < 100 nM | < 10 nM
C[C@@H](OC(=O)Nc1cccnc1C1CCN(c2ccc(C3(C(=O)O)CC3)cc2)CC1)c1ccccc1 [Compound 28] | 500 to 5000 nM | 10 to 200 nM
Cc1ncnc(C2CCN(c3ccc(C4(C(=O)O)CC4)cc3)CC2)c1NC(=O)O[C@H](C)c1ccccc1 [Compound 29] | 500 to 5000 nM | 200 to 3000 nM
Cc1noc(C2CCN(c3ccc(C4(C(=O)O)CC4)cc3)CC2)c1NC(=O)O[C@H](C)c1ccccc1C(C)(C)F [Compound 30] | 500 to 5000 nM | 10 to 200 nM
Cc1ccccc1[C@@H](C)OC(=O)Nc1c(C)noc1C1CC2(C1)CN(c1ccc(C3(C(=O)NS(=O)(=O)CCC(=O)O)CC3)cc1)C2 [Compound 31, 3-({[1-(4-{6-[3-methyl-4-({[(1R)-1-(2-methylphenyl)ethoxy]carbonyl}amino)-1,2-oxazol-5-yl]-2-azaspiro[3.3]heptan-2-yl}phenyl)cyclopropyl]formamido}sulfonyl)propanoic acid] | < 100 nM | 10 to 200 nM
Cc1noc(C2CCN(c3ccc(C4(C(=O)O)CC4)cc3)CC2)c1NC(=O)[C@H](O)c1ccccc1 [Compound 32] | ≥ 5000 nM | 200 to 3000 nM
Cc1ccccc1[C@@H](C)OC(=O)Nc1c(C2CCN(c3ccc(C4(C(=O)O)CC4)cc3)CC2)cnn1C [Compound 34] | < 100 nM | 10 to 200 nM

Structure (SMILES) | IC50 (A2058 cells) | IC50 (hLPAR1)
Cc1ccccc1[C@@H](C)OC(=O)Nc1c(C)nsc1C1CCN(c2ccc(C3(C(=O)O)CC3)cc2)CC1 [Compound 36] | < 100 nM | < 10 nM
C[C@@H](OC(=O)Nc1c(C2CCN(c3ccc(C4(C(=O)NS(=O)(=O)C5(C(=O)O)CC5)CC4)cc3)CC2)nnn1C)c1ccccc1Cl [Compound 39, 1-[[1-[4-[4-[5-[[(1R)-1-(2-chlorophenyl)ethoxy]carbonylamino]-1-methyl-triazol-4-yl]-1-piperidyl]phenyl]cyclopropanecarbonyl]sulfamoyl]cyclopropanecarboxylic acid] | < 100 nM | < 10 nM
C[C@@H](OC(=O)Nc1c(C2CCN(c3ccc(C4(C(=O)NS(=O)(=O)CC(C)(C)C(=O)O)CC4)cc3)CC2)nnn1C)c1ccccc1Cl [Compound 40] | 100 to 500 nM | 10 to 200 nM
C[C@@H](OC(=O)Nc1c(C2CCN(c3ccc(C4(C(=O)NS(=O)(=O)CC5(C(=O)O)CC5)CC4)cc3)CC2)nnn1C)c1ccccc1Cl [Compound 41] | 100 to 500 nM | < 10 nM
Cc1nsc(C2CCN(c3ccc(C4(C(=O)O)CC4)cc3)CC2)c1NC(=O)O[C@H](C)c1ccccc1Cl [Compound 42] | < 100 nM | 10 to 200 nM
Cc1nsc(C2CCN(c3ccc(C4(C(=O)O)CC4)cc3)CC2)c1NC(=O)O[C@H](C)c1ccccc1F [Compound 43] | 100 to 500 nM | 10 to 200 nM
COc1ccccc1[C@@H](C)OC(=O)N(C)c1c(C)nsc1C1CCN(c2ccc(C3(C(=O)O)CC3)cc2)CC1 [Compound 44] | 100 to 500 nM | 10 to 200 nM
Cc1noc(C2CCN(c3ccc(C4(C(=O)O)CC4)cc3)CC2)c1N(C)C(=O)O[C@H](C)c1ccccc1 [Compound 45] | 100 to 500 nM | 10 to 200 nM
COc1cc(C2(C(=O)O)CC2)ccc1N1CC2(CC(c3onc(C)c3NC(=O)O[C@H](C)c3ccccc3)C2)C1 [Compound 46, 1-(3-methoxy-4-{6-[3-methyl-4-({[(1R)-1-phenylethoxy]carbonyl}amino)-1,2-oxazol-5-yl]-2-azaspiro[3.3]heptan-2-yl}phenyl)cyclopropane-1-carboxylic acid] | 500 to 5000 nM | < 10 nM
CO[C@@H](C(=O)Nc1c(C)noc1C1CCN(c2ccc(C3(C(=O)O)CC3)cc2)CC1)c1ccccc1 [Compound 47] | 500 to 5000 nM | 200 to 3000 nM
Cc1noc(C2CC3(C2)CN(c2ccc(C4(C(=O)NS(=O)(=O)CC(=O)O)CC4)cc2)C3)c1NC(=O)O[C@H](C)c1ccccc1 [Compound 48] | < 100 nM | 10 to 200 nM
Cc1noc(C2CCN(c3ccc(C4(C(=O)O)CC4)cc3)CC2)c1Nc1cccc(-c2ccccc2)n1 [Compound 49] | 500 to 5000 nM | 10 to 200 nM
Cc1noc(C2CC3(C2)CN(c2ccc(C4(C(=O)NS(=O)(=O)CCC(=O)O)CC4)cc2)C3)c1NC(=O)O[C@H](C)c1ccccc1 [Compound 50] | < 100 nM | < 10 nM
Cc1nnn(C2CCN(c3ccc(C4(C(=O)O)CC4)cc3)CC2)c1NC(=O)O[C@H](C)c1ccccc1Cl [Compound 51] | 500 to 5000 nM | < 10 nM
Cc1noc(C2CC3(C2)CN(c2ccc(C4(C(=O)NS(=O)(=O)CCCO)CC4)cc2)C3)c1NC(=O)O[C@H](C)c1ccccc1 [Compound 52] | < 100 nM | < 10 nM
Cc1nnn(C2CCN(c3ccc(C4(C(=O)O)CC4)cc3)CC2)c1NC(=O)O[C@H](C)c1ccccc1 [Compound 53] | 500 to 5000 nM | < 10 nM
C[C@@H](OC(=O)Nc1c(C2CCN(c3ccc(C4(C(=O)NS(=O)(=O)C(C)(C)C(=O)O)CC4)cc3)CC2)nnn1C)c1ccccc1 [Compound 56] | 100 to 500 nM | < 10 nM
C[C@@H](OC(=O)Nc1c(C2CCN(c3ccc(C4(C(=O)NS(=O)(=O)C5(C(=O)O)CC5)CC4)cc3)CC2)nnn1C)c1ccccc1 [Compound 57, 1-[[1-[4-[4-[1-methyl-5-[[(1R)-1-phenylethoxy]carbonylamino]triazol-4-yl]-1-piperidyl]phenyl]cyclopropanecarbonyl]sulfamoyl]cyclopropanecarboxylic acid] | < 100 nM | < 10 nM
Cc1noc(C2CCN(c3ccc(C4(C(=O)NS(=O)(=O)C(F)(F)C(N)=O)CC4)cc3)CC2)c1NC(=O)O[C@H](C)c1ccccc1 [Compound 66] | < 100 nM | < 10 nM
